We go through one compound from patent publication US10159670B2, “Methods of diagnosing and treating motor neuron diseases and other cellular stress-related diseases” (priority 2012, dated 2018).

The subject of this assay is NSC-34 cells. The assay can be described thus: Stress-induced change of pre-miRNA processing in NSC-34 cells (qPCR). Type of assay: cell-based. The settings on record: 1 hr, 0.5 mM. As to the method: (FIG. 7A) miRNA expression level analysis in the motor neuron cell line NSC-34, treated with 6.25 nM Thapsigargin for 24 hrs, relative to cells treated with carrier alone (DMSO). Shown are average and s.d. of qPCR analyses of 3 independent experiments. Pre-miRNAs (light grey, normalized to Gapdh) and miRNAs (dark grey, normalized to Snord68). (FIG. 7B) mRNA levels encoding for proteins involved in the canonical stress response, normalized to the expression of beta-actin. (FIG. 7C) miRNA expression level analysis in mouse embryonic motor neurons, treated with 5 nM Thapsigargin for 72 hrs, relative to cells treated with carrier alone (DMSO). Shown are average and s.d. of qPCR analyses of three independent experiments. Pre-miRNAs (light grey, normalized to Gapdh and beta actin) and miRNAs (dark grey, normalized to Snord70). (FIG. 7D) mRNA markers of the canonical stress response, normalized to the expression of beta-actin. miRNA expression level analysis in NSC-34 cells, treated with Paraquat (PQ) (1 mM, 12 hrs, FIG. 7E) and sodium arsenite (0.5 mM, 60 min, FIG. 7F). pre-miRNA normalized to beta-actin mRNA (FIGS. 7E-F) and miRNAs to 5S (FIG. 7E) or to U6 and 5S (FIG. 7F). (FIGS. 7G-I) miRNA expression level analysis in mouse embryonic Wild-type fibroblasts (light grey) or phospho-mutant eIF2a S51A cells (black) treated with Thapsigargin (5 nM, 72 hrs) relative to carrier alone. Pre-miRNA (FIG. 7G) and mature miRNA (FIG. 7H) levels normalized to Gapdh and Snord68, respectively. (FIG. 7I) ATF4, which is induced by phosphorylation of eIF2a, was not induced in phospho-mutant eIF2a S51A cells. Significance of p-values from ANOVA tests is indicated by *p<0.05; **p<0.01. (FIGS. 7J-K) Western-Blot analysis of lysates from untreated NSC-34 cells (control) or cells treated with sodium arsenite (0.5 mM, 60 min). Phospho-specific immunodetection of eIF2a S51 phosphorylation (peIF2a) and total eIF2a levels (FIG. 7J), Dicer and Ago2 levels (FIG. 7K). (FIG. 7L) miRNA expression level analysis in mouse embryonic fibroblasts treated with Puromycin (1 μg/ml, 24 hrs), relative to cells treated with carrier alone (water). Pre-miRNAs (light grey, normalized to Gapdh) and miRNAs (dark grey, normalized to Snord68).
RNA was extracted using Tri reagent (Molecular Research Center Inc.) or Qiazol with consecutive use of the miRNeasy Mini Kit (Qiagen). Pre-miRNA and miRNA reverse transcription was performed using miScript Kits No. I & II (Qiagen). Quantitative analysis of miRNA and pre-miRNA expression performed in more than 3 independent biological repeats and additionally in technical duplicates with StepOnePlus quantitative Real-Time PCR System and 2-sided ANOVA-test performed with DataAssist Software (Life technologies Inc.). Next-generation sequencing of mouse precursor miRNAs and mature miRNAs was performed on two independent experimental repeats, as described in Newman et al. [Newman et al. (2011) RNA 17(10): 1795-1803]. miRNAs were normalized to spiked-in controls and pre-miRNAs were normalized to Snord72 and Snord95.
Stress and cytoplasmic stress granules (SGs) emerge as major pathogenic mechanisms of ALS [Kim et al. (2014) Nat Genet 46(2): 152-160]. Stress pathways are thought to control miRNA activity [Etude and Hornstein, EMBO J. (2014) July 1; 33(13):1428-37], but the idea that cellular stress might broadly regulate miRNA biogenesis was not yet tested. This hypothesis was tested herein by measurement of the relative expression levels of mature miRNAs and their precursors, pre-miRNAs, which provides a proxy for the efficacy of Dicer complex activity. […] Two other chemicals were tested that drive oxidative stress, namely Paraquat (PQ, 12 hrs, 1 mM) and sodium arsenite (1 hr, 0.5 mM). […] Therefore, several different cellular stress pathways negatively regulate miRNA biogenesis.
On the technique in general: Real-time PCR tracks product formation cycle by cycle.

`O=[As]O` [sodium arsenite]: the “mature miRNAs” value is listed as “down-regulation of mature miRNAs” and the pre-miRNA levels result is listed as “up-regulation of pre-miRNA levels”.
